Measurements reported in the supplement of paper PMC9013687.
± gives the standard deviation of the averaged measurements.

How the values were obtained:
[1] = system: Danio rerio embryo; experiment: EC20 Eye-jaw distance_Decrease; higher = less potent; settings: exposure time: 4 dpf
Protocol: (§1)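 Zebrafish embryos (UFZ-OBI strain) were exposed from 2 hpf for 48 h (2 dpf) or 96 h (4 dpf) at 28 °C; spontaneous tail coiling was scored at 25 hpf. Morphological features from automated image analysis (FishInspector), heart rate and locomotor response were fitted with drc models. Quantal endpoints were dichotomised at 2.5 SD from controls and fitted with a log-logistic model; heart rate, pigmentation and STC were normalised to the replicate control mean. Betamethasone was tested as betamethasone dipropionate, diflorasone as diflorasone diacetate.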

[2] = system: Danio rerio embryo; experiment: EC20 Curvature_Increase; higher = less potent
Protocol: as §1

[3] = system: Danio rerio embryo; experiment: EC20 LMR dark; higher = less potent; settings: exposure time: 4 dpf
Protocol: as §1

[4] = system: Danio rerio embryo; experiment: EC50 Body length_Decrease
Protocol: as §1

[5] = system: Danio rerio embryo; experiment: EC20 Any effect; higher = less potent
Protocol: as §1

[6] = system: Danio rerio embryo; experiment: EC10 Body length_Decrease; higher = less potent
Protocol: as §1

[7] = system: Danio rerio embryo; experiment: EC20 Otolith-eye distance_Decrease; higher = less potent; settings: exposure time: 4 dpf
Protocol: as §1

[8] = system: Danio rerio embryo; experiment: EC10 Yolk sac size_Increase; higher = less potent; settings: exposure time: 4 dpf
Protocol: as §1

[9] = system: Danio rerio embryo
Protocol: as §1

[10] = system: Danio rerio embryo; experiment: EC10 Curvature_Increase; higher = less potent
Protocol: as §1

[11] = system: Danio rerio embryo; experiment: EC10 Any effect; higher = less potent
Protocol: as §1

[12] = system: Danio rerio embryo; experiment: EC10 Bladder size_Decrease; higher = less potent; settings: exposure time: 4 dpf
Protocol: as §1

[13] = system: Danio rerio embryo; experiment: EC10 Pericard size_Increase; higher = less potent
Protocol: as §1

[14] = system: Danio rerio embryo; experiment: EC10 Otolith-eye distance_Decrease; higher = less potent; settings: exposure time: 4 dpf
Protocol: as §1

[15] = system: Danio rerio embryo; experiment: EC50 Eye-jaw distance_Decrease; settings: exposure time: 4 dpf
Protocol: as §1

[16] = system: Danio rerio embryo; experiment: EC10 LMR dark; higher = less potent; settings: exposure time: 4 dpf
Protocol: as §1

[17] = system: Danio rerio embryo; experiment: EC20 Yolk sac size_Increase; higher = less potent; settings: exposure time: 4 dpf
Protocol: as §1

[18] = system: Danio rerio embryo; experiment: EC50 Yolk sac size_Increase; settings: exposure time: 4 dpf
Protocol: as §1

[19] = system: Danio rerio embryo; settings: exposure time: 4 dpf
Protocol: as §1

[20] = system: Danio rerio embryo; experiment: EC20 Bladder size_Decrease; higher = less potent; settings: exposure time: 4 dpf
Protocol: as §1

[21] = system: Danio rerio embryo; experiment: EC50 Otolith-eye distance_Decrease; settings: exposure time: 4 dpf
Protocol: as §1

[22] = system: Danio rerio embryo; experiment: EC50 Bladder size_Decrease; settings: exposure time: 4 dpf
Protocol: as §1

[23] = system: Danio rerio embryo; experiment: spontaneous tail coiling frequency (coils/min/embryo); higher = more spontaneous movement; settings: 25 hpf
Protocol: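 Spontaneous tail coilings of zebrafish embryos exposed from 2 hpf were recorded at 24-25 hpf in 1-min videos and detected by a KNIME workflow from grey-value variance. Betamethasone was tested as the dipropionate, diflorasone as the diacetate.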

[24] = system: Danio rerio embryo; experiment: EC20 Pericard size_Increase; higher = less potent
Protocol: as §1

[25] = system: Danio rerio embryo; experiment: EC10 Eye-jaw distance_Decrease; higher = less potent; settings: exposure time: 4 dpf
Protocol: as §1

[26] = system: Danio rerio embryo; experiment: EC50 Pericard size_Increase
Protocol: as §1

[27] = system: Danio rerio embryo; experiment: EC20 Body length_Decrease; higher = less potent
Protocol: as §1

[28] = system: Danio rerio embryo; experiment: EC50 Curvature_Increase
Protocol: as §1

O=C(O)CCc1nc(-c2ccccc2)c(-c2ccccc2)o1 [Oxaprozin]
Settings | EC10 Bladder size Decrease [µM] | EC10 Eye-jaw distance Decrease [µM] | EC10 LMR dark [µM] | EC10 Otolith-eye distance Decrease [µM] | EC10 Yolk sac size Increase [µM] | EC20 Bladder size Decrease [µM] | EC20 Eye-jaw distance Decrease [µM] | EC20 LMR dark [µM] | EC20 Otolith-eye distance Decrease [µM] | EC20 Yolk sac size Increase [µM] | EC50 Bladder size Decrease [µM] | EC50 Eye-jaw distance Decrease [µM] | EC50 LMR dark [µM] | EC50 Otolith-eye distance Decrease [µM] | EC50 Yolk sac size Increase [µM]
[1] | – | – | – | – | – | – | 15.4 | – | – | – | – | – | – | – | –
[3] | – | – | – | – | – | – | – | 13.3 | – | – | – | – | – | – | –
[7] | – | – | – | – | – | – | – | – | 19.2 | – | – | – | – | – | –
[8] | – | – | – | – | 13.4 | – | – | – | – | – | – | – | – | – | –
[12] | 11.5 | – | – | – | – | – | – | – | – | – | – | – | – | – | –
[14] | – | – | – | 16.5 | – | – | – | – | – | – | – | – | – | – | –
[15] | – | – | – | – | – | – | – | – | – | – | – | 21.5 | – | – | –
[16] | – | – | 11.8 | – | – | – | – | – | – | – | – | – | – | – | –
[17] | – | – | – | – | – | – | – | – | – | 16.3 | – | – | – | – | –
[18] | – | – | – | – | – | – | – | – | – | – | – | – | – | – | 22.6
[19] | – | – | – | – | – | – | – | – | – | – | – | – | 16.2 | – | –
[20] | – | – | – | – | – | 11.8 | – | – | – | – | – | – | – | – | –
[21] | – | – | – | – | – | – | – | – | – | – | – | – | – | 24.8 | –
[22] | – | – | – | – | – | – | – | – | – | – | 12.2 | – | – | – | –
[25] | – | 12.7 | – | – | – | – | – | – | – | – | – | – | – | – | –

Settings | EC10 Any effect [µM] | EC10 Body length Decrease [µM] | EC10 Curvature Increase [µM] | EC10 Pericard size Increase [µM] | EC20 Any effect [µM] | EC20 Body length Decrease [µM] | EC20 Curvature Increase [µM] | EC20 Pericard size Increase [µM] | EC50 Any effect [µM] | EC50 Body length Decrease [µM] | EC50 Curvature Increase [µM] | EC50 Pericard size Increase [µM] | EC50 Pigmentation increase [µM] | spontaneous tail coiling frequency
[2], exposure time: 2 dpf | – | – | – | – | – | – | 38 | – | – | – | – | – | – | –
[2], exposure time: 4 dpf | – | – | – | – | – | – | 24.8 | – | – | – | – | – | – | –
[4], exposure time: 2 dpf | – | – | – | – | – | – | – | – | – | 38 | – | – | – | –
[4], exposure time: 4 dpf | – | – | – | – | – | – | – | – | – | 27.1 | – | – | – | –
[5], exposure time: 2 dpf | – | – | – | – | 19.3 | – | – | – | – | – | – | – | – | –
[5], exposure time: 4 dpf | – | – | – | – | 15.3 | – | – | – | – | – | – | – | – | –
[6], exposure time: 2 dpf | – | 25.1 | – | – | – | – | – | – | – | – | – | – | – | –
[6], exposure time: 4 dpf | – | 19.3 | – | – | – | – | – | – | – | – | – | – | – | –
[9], exposure time: 2 dpf | – | – | – | – | – | – | – | – | 30.2 | – | – | – | – | –
[9], exposure time: 4 dpf | – | – | – | – | – | – | – | – | 20.2 | – | – | – | 35.6 | –
[10], exposure time: 2 dpf | – | – | 28.7 | – | – | – | – | – | – | – | – | – | – | –
[10], exposure time: 4 dpf | – | – | 21.8 | – | – | – | – | – | – | – | – | – | – | –
[11], exposure time: 2 dpf | 14.9 | – | – | – | – | – | – | – | – | – | – | – | – | –
[11], exposure time: 4 dpf | 13 | – | – | – | – | – | – | – | – | – | – | – | – | –
[13], exposure time: 2 dpf | – | – | – | 31.1 | – | – | – | – | – | – | – | – | – | –
[13], exposure time: 4 dpf | – | – | – | 11.8 | – | – | – | – | – | – | – | – | – | –
[23], 15.2 µM | – | – | – | – | – | – | – | – | – | – | – | – | – | 4.43
[23], 17 µM | – | – | – | – | – | – | – | – | – | – | – | – | – | 3.98
[23], 22.7 µM | – | – | – | – | – | – | – | – | – | – | – | – | – | 4.29
[23], 34.1 µM | – | – | – | – | – | – | – | – | – | – | – | – | – | 4.85 ± 1.1
[23], 51.1 µM | – | – | – | – | – | – | – | – | – | – | – | – | – | 5.84
[23], 68.2 µM | – | – | – | – | – | – | – | – | – | – | – | – | – | 4.34
[23], 85.2 µM | – | – | – | – | – | – | – | – | – | – | – | – | – | 8.82
[23], 102.3 µM | – | – | – | – | – | – | – | – | – | – | – | – | – | 6.78
[24], exposure time: 2 dpf | – | – | – | – | – | – | – | 38.6 | – | – | – | – | – | –
[24], exposure time: 4 dpf | – | – | – | – | – | – | – | 14.1 | – | – | – | – | – | –
[26], exposure time: 2 dpf | – | – | – | – | – | – | – | – | – | – | – | 55.9 | – | –
[26], exposure time: 4 dpf | – | – | – | – | – | – | – | – | – | – | – | 19.1 | – | –
[27], exposure time: 2 dpf | – | – | – | – | – | 29.3 | – | – | – | – | – | – | – | –
[27], exposure time: 4 dpf | – | – | – | – | – | 21.8 | – | – | – | – | – | – | – | –
[28], exposure time: 2 dpf | – | – | – | – | – | – | – | – | – | – | 61.4 | – | – | –
[28], exposure time: 4 dpf | – | – | – | – | – | – | – | – | – | – | 30.8 | – | – | –
